Source: the METLIN SMRT retention time set (Domingo-Almenara et al. 2019)

Assay: gradient 5% acetonitrile 3 min, to 50% in 2 min, to 85% in 15 min, held 3 min, 100 µL/min
Conditions: column: Zorbax Extend-C18 2.1 x 50 mm; eluents: water / acetonitrile, 0.1% formic acid
Outline: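 Using water and acetonitrile that each contained 0.1% formic acid, mixtures of ~100 pure standards were separated at 100 μL/min on a Zorbax Extend-C18 column (2.1 × 50 mm, 1.8 μm). The HPLC fed a quadrupole time-of-flight mass spectrometer working in positive and negative ionization mode, with dead and dwell volumes of 40 μL and 900 μL. Data were acquired over 3 months. Retention time was read from computationally picked adduct peaks after manual inspection of each.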

RP-LC retention time [s]	SMILES
814	Cn1c(=O)c2c(-c3ccc(Cl)cc3)c(C#N)c(N)nc2n(C)c1=O
778	CC1(C(=O)NC2CCCC2)Cn2cnc(C(=O)NCc3ccccc3F)c2C(=O)N1C1CC1 (stereo not given)
1030	CCc1ccc(S(=O)(=O)N2CCc3c(c(-c4nnc(-c5ccccc5)o4)nn3C)C2)cc1
831	O=C(NCC(=O)N1CCCc2ccccc21)c1ccccc1F
715	CC(NC(=O)C1CCN(c2cncnc2N2CCCCC2)CC1)c1ccc(F)cc1 (stereo not given)
676	CCc1nncn1C1CCN(S(=O)(=O)c2ccc(F)cc2)CC1
650	CC(C)c1nc2c(c(=O)n1CC(=O)NCc1cccs1)CN(Cc1ccccc1)CC2
581	O=C(Nc1ccc(F)cc1F)N1CCN(CCn2c(-c3ccncc3)nc3cccnc32)CC1
1110	CCc1noc(-c2ccnc(-n3ncc(C(=O)NCC4CC4)c3C)c2)n1
647	COc1ccc(NC(=O)NCCc2nc3cccnc3n2C2CCCC2)cc1OC
726	NC(=O)c1ccc2c(c1)CCCN2S(=O)(=O)c1ccccc1
1080	CCCc1nc(-c2ccccc2)oc1CC(=O)Nc1cccc(Cl)c1C
916	Cc1noc(C)c1-c1ccc(S(=O)(=O)Nc2cccc(F)c2)cc1
704	Cc1ccc2c(c1)N(C(=O)CCC(=O)NCCCN1CC(C)CC(C)C1)CC(C)O2 (stereo not given)
1260	Cn1nccc1C(=O)Nc1ccsc1-c1nc(-c2ccc(F)cc2)no1
700	CC(C)c1cccc(NC(=O)Cn2nc3n(c2=O)CCCCC3)c1
789	Cn1nc(-c2nc(-c3ccc(F)cc3)no2)c2c1CCN(C(=O)C1CCCO1)C2 (stereo not given)
684	O=C(NCc1cccs1)C1CCCN(c2nnc3c(Cl)cccn23)C1 (stereo not given)
822	COc1ccc(C)cc1NC(=O)N1CCc2cn(C)c3cccc(c23)C1
804	Cc1cc(OCC(=O)Nc2ccccc2)nc(N2CCN(c3ccccc3)CC2)n1
813	CC(C)CN1CCn2cc(S(=O)(=O)NCc3cccc(F)c3)cc2C1=O
940	CC(=O)c1cccc(NC(=O)c2cnn(-c3ccc(Br)cc3)c2)c1
690	CCC(=O)N1CCc2cc(N3CC(C(=O)Nc4ccc(F)c(F)c4)CC3=O)ccc21 (stereo not given)

RP-LC retention time [s]	SMILES
1030	CCOc1ccccc1-c1noc(CN2C(=O)COc3ccc(C)cc32)n1
673	O=C(NCCc1n[nH]c(Cc2cccc(F)c2)n1)c1ccc2c(c1)OCO2
1200	CC(C)CCn1c(SCc2cc(=O)n3ccccc3n2)nc2c(-c3ccccc3)cn(C)c2c1=O
685	Cc1ccc2oc(N3CCN(C(=O)c4ccc(-c5noc(C(C)C)n5)cc4)CC3)nc2n1
1120	CCc1ccc2c(-c3cccc(Cl)c3)nc(=O)n(CC)c2n1
718	CCCC(=O)NCCn1c(=O)n(Cc2ccccc2)c2cccnc21
800	CCOc1ccc(-c2nc3ncccn3c2NCc2ccc(C)cc2)cc1
878	O=C(Nc1ccc2c(c1)OCCO2)N1CCCCC1c1nc(CCOCC2CC2)no1 (stereo not given)
660	NC1=NC(=O)/C(=C/c2ccccc2OCC(=O)Nc2ccc(F)cc2)S1
805	CC1CCC2(CC1)NC(=O)N(CC(=O)N(C)c1ccccc1)C2=O (stereo not given)
968	COc1ccc(-c2noc(C3CCCN3C(=O)c3cc(F)ccc3F)n2)cc1 (stereo not given)
680	COc1ccc(-c2noc(C(C)NC(C)=O)n2)cc1 (stereo not given)
663	OCC1OC(n2cnc3c(SCc4ccccc4)ncnc32)C(O)C1O (stereo not given)
726	CN1C(=O)CSc2cnn(CC(=O)N3CCCc4ccccc43)c(=O)c21
592	Cc1ccnc(NC(=O)C2CC(=O)N(c3n[nH]c4ccccc34)C2)c1 (stereo not given)
702	COc1ccc(NC(=O)N2CCC3(C2)C(=O)Nc2ccccc23)cc1 (stereo not given)
600	Cc1nn(C)c(C)c1C(=O)N1CCC2(CCC2O)CC1 (stereo not given)
912	Cc1ccc(CNC(=O)C2(C)CCCN(C(=O)NCCc3ccccc3)C2)cc1 (stereo not given)
855	Cc1noc(C)c1C(=O)N1CCCC1c1ccc(Cl)cc1 (stereo not given)
972	C(=C\c1ccccc1)/CN1CCN(C(c2ccccc2)c2ccccc2)CC1
1120	O=C(Cn1nc2c(SC3CCCCC3)nccn2c1=O)Nc1ccc(Br)cc1
767	Cc1ccc(S(=O)(=O)N2CC3CN(C(=O)NCc4ccco4)CC(C2)O3)cc1
851	COc1ccc(C(=O)N2CCC3(CC2)N=C(c2ccc(Cl)cc2)NO3)cc1

RP-LC retention time [s]	SMILES
937	CCc1noc(NC(C)=O)c1-c1ccc(C)c(S(=O)(=O)NC2CCC(C)CC2)c1 (stereo not given)
1010	CC1(C)CC(=O)c2cn(-c3ccccc3)c(=O)c(C(=O)NC3CCCCC3)c2C1
990	O=C(CCn1nnc2cc(-c3noc(COc4ccc(F)cc4)n3)ccc21)N1CCCCCC1
848	O=C(Nc1cnn(-c2ncc(N3CCSCC3)cn2)c1)NC1CCCC1
1080	CCCCC(=O)N1CCN(c2nc3ccccc3nc2C(F)(F)F)CC1
733	CSc1cccc(NC(=O)NCC(c2cccnc2)c2cn(C)c3ccccc23)c1 (stereo not given)
702	CC(C)N(C(=O)Cn1c(C2CC(=O)N(C(C)(C)C)C2)nc2ccccc21)c1ccccc1 (stereo not given)
957	COc1ccc(-c2nnc(Cc3nc(-c4ccccc4C)no3)o2)cc1OC
769	COc1cccc(NC(=O)C2CCN(c3c(C)n(C)c(=O)n(C)c3=O)CC2)c1
756	COC(=O)c1ccc2c(=O)n(-c3ccc(C)c(C)c3)c(N3CCN(c4ccccn4)CC3)nc2c1
1110	CCn1c(C(=O)Nc2cc(C)cc(C)c2)cc2sc(Cl)cc21
756	COCC(=O)Nc1ccc2nc(-c3ccc(Cl)cc3)cc(OCC(=O)OC)c2c1
1110	Cc1ccc(NC(=O)Cn2nc3c(N4CCN(c5ccccc5C)CC4)nccn3c2=O)cc1F
604	O=c1[nH]cc(S(=O)(=O)N2CCCCC2)c(=O)[nH]1
1010	Cc1ccc(-c2cc3c4nnc(SCC(=O)Nc5ccc(F)cc5Cl)n4ccn3n2)cc1C
696	CCOC(=O)c1c(C)[nH]c(C(=O)CC(=O)OC)c1C
559	CN(C)c1ccc(CNC(=O)C2CCN(c3cc(N4CCCCC4)ncn3)CC2)cc1
800	Cc1ccc(CNC(=O)C2CCCN(c3nnc(C)c4c(C)n(-c5ccc(C)cc5)nc34)C2)cc1 (stereo not given)
1010	CCOC(=O)c1noc2ncnc(N3CCN(c4ccc(F)cc4)CC3)c12
983	Cc1nc(CC(=O)Nc2nc(-c3ccc(Cl)cc3)c(C)s2)cs1
760	CCCc1cc(C2CCCN2C(=O)Cc2ccc(OC)c(OC)c2)no1 (stereo not given)
784	O=C(Nc1ccc(F)cc1F)C1CC(=O)N(CCc2c[nH]c3ccc(F)cc23)C1 (stereo not given)
770	CCn1nc(C(=O)Nc2nnc(-c3cc4ccccc4o3)o2)cc1C

RP-LC retention time [s]	SMILES
629	O=C(NC1CC1)C1CCCN(C(=O)c2ccc(F)cc2)C1 (stereo not given)
825	COc1ccc(C(=O)COc2ccccc2OC)cc1
593	COc1ccc(NC(=O)Cn2c(N)nc(C)cc2=O)cc1F
690	CN1C(=O)c2cccn2CC1C(=O)NCCc1c[nH]c2ccccc12 (stereo not given)
674	c1ccc(-c2noc(-c3ccc(OC4CNC4)cc3)n2)cc1
783	COc1ccc(NC(=O)C2CCN(S(=O)(=O)c3ccc4c(c3)NC(=O)C(C)O4)CC2)cc1 (stereo not given)
812	CC1(C)N=C(N)N=C(N)N1c1ccc(OCCCOc2ccccc2)c(Cl)c1
796	Cc1noc(C2CCCCN2C(=O)c2cc(-c3ccccc3)n[nH]2)n1 (stereo not given)
566	COc1ccc(C(=O)NCC(c2cccn2C)N2CCCC2)c(OC)c1OC (stereo not given)
709	CCc1ccc(C2=C(C)C(N3CCCN(C(=O)c4ccncc4)CC3)=NS2(=O)=O)cc1
822	COc1cccc(C(=O)N2CCCC(c3nnc(-c4ccccc4)o3)C2)c1 (stereo not given)
826	CC(=O)c1c(C)n(CC(=O)NCc2cc3c(cc2C)OCCCO3)c2ccccc12
1140	O=C(NCC1CCCO1)c1ccc(Nc2c(-c3ccccc3)nc3cnccn23)cc1 (stereo not given)
821	O=C(Nc1ccc2c(c1)CN(C(=O)c1cccs1)CC2)c1ccccc1C(F)(F)F
915	O=C(NC1CCCC1)C1CCCN(S(=O)(=O)Cc2ccccc2Cl)C1 (stereo not given)
881	O=C(Cn1nc2c(Oc3ccc(Cl)cc3)nccn2c1=O)NC1CCCCC1
672	Cc1cccc(-c2nc3cnccn3c2NCCC(=O)NCC(C)C)c1
1330	O=S(=O)(c1ccc2c(c1)CCCC2)N1CCCC1c1nc(-c2cccc(F)c2)no1 (stereo not given)
610	CCc1cc(=O)n(CC(=O)Nc2ccccc2CC)c(N)n1
847	Cn1cc(-c2ccc(F)cc2)cc1C(=O)NC1CC1
743	Cc1cc2c(cc1S(=O)(=O)N1CCCC1C(=O)Nc1ccc(F)cc1)OCC(=O)N2 (stereo not given)
